From patent US9416143B2, “Griseofulvin derivatives” (PIERRE FABRE MEDICAMENT, priority 2012, dated 2016)
Read-outs that look alike come from different tables or passages of the source.

Experiments:
Assay type in all cases: cell-based
[1] = test system: MDA-MB-231 line (mammary adenocarcinoma cell line); experiment: Cell proliferation (ATPLite) on MDA-MB-231 line; settings: read 72 hours after addition
Procedure: (§1) The lines N1E115 (ATCC, CRL2263), MDA-MB-231 (ATCC, HTB26) and HSC-1 (Health Science Research Resources Bank, JCRB1015) were cultured in DMEM medium (Dulbecco's Modified Eagle Medium) supplemented with 2 mM of L-Glutamine (Sigma, G7513) and 10% foetal calf serum (Hyclone, SH30109.03) or 20% for the HSC-1 cells. The HCC-1937 (ATCC, CRL2336) and A549 (ATCC, CCL185) lines were cultured in RPMI medium (Roswell Park Memorial Institute Medium) supplemented with 10% foetal calf serum and 2 mM of L-Glutamine. Finally, the SCC114 (DSMZ, ACC662) line was cultured in MEM medium (Minimum Essential Medium Eagle) supplemented with 10% foetal calf serum and 2 mM of L-Glutamine. Initially, in 96-well plates (Perkin Elmer, 6005668), the cells were seeded in their respective culture media with 750 cells per well for N1E115; 1000 cells per well for SCC114 and A549; 2000 cells per well for HCC-1937 and HSC-1; 2500 cells per well for MDA-MB-231. Cascade dilution of each compound was performed in dimethylsulfoxide (DMSO) (Sigma, D8418) from 10 mM stock solutions in 100% DMSO. Each of the dilutions was added to the cells 24 hours after seeding. Under these conditions the final solvent concentration was 0.1% DMSO. Reading of cell proliferation was conducted 72 hours after addition of products with the ATPLite kit (Perkin Elmer, 6016947) and following the manufacturer's directions except in the case of the HCC-1937 line for which this reading was carried out 48 hours after treatment. Analysis of proliferation results was performed by comparing with conditions in which solely the vehicle was added to the cells. The dose-response curves obtained were analysed using Prism 4.03 software (GraphPad Software Inc.) to determine the concentration of each compound allowing 50% inhibition of cell proliferation (IC50).
(§2) As examples, the cytotoxic properties of some compounds of the invention evaluated on the lines A549 (lung cancer cell line), MDA-MB-231 line (mammary adenocarcinoma cell line), N1E115 (mouse brain neuroblastoma cell line), HCC-1937 line (primary ductam breast carcinoma cell line), HSC-1 (cutaneous squamous carcinoma cell line) and SCC114 line (oral squamous carcinoma cell line) are reported in Table 1, as compared with griseofulvin used as control product. The concentration values are expressed in micromolar units (μM).

[2] = test system: SCC114 line (oral squamous carcinoma cell line); experiment: Cell proliferation (ATPLite) on SCC114 line; settings: read 72 hours after addition
Procedure: as §1, §2

[3] = test system: A549 (lung cancer cell line); experiment: Cell proliferation (ATPLite) on A549 line; settings: read 72 hours after addition
Procedure: as §1, §2

[4] = test system: N1E115 (mouse brain neuroblastoma cell line); experiment: Cell proliferation (ATPLite) on N1E115 line; settings: 50% inhibition of cell proliferation, read 72 hours after addition, read-out: IC50 (μM) N1E-115
Procedure: as §1, §2

[5] = test system: HCC-1937 line (primary ductam breast carcinoma cell line); experiment: Cell proliferation (ATPLite) on HCC-1937 line; settings: read 48 hours after treatment
Procedure: as §1, §2

[6] = test system: HSC-1 (cutaneous squamous carcinoma cell line); experiment: Cell proliferation (ATPLite) on HSC-1 line; settings: 50% inhibition of cell proliferation, read 72 hours after addition
Procedure: as §1, §2

[7] = 50% inhibition of cell proliferation
[8] = 50% inhibition of cell proliferation, read-out: IC50 (μM) HCC1937
[9] = Homo sapiens, MDA-MB-231, 50% inhibition of cell proliferation
[10] = SCC114, 50% inhibition of cell proliferation
[11] = Homo sapiens, HCC1937, 50% inhibition of cell proliferation

Row | IC50 [1, 7] [µM] | IC50 [2, 7] [µM] | IC50 [3, 7] [µM] | IC50 [4] [µM] | IC50 [5, 8] [µM] | IC50 [6] [µM] | IC50 [1, 9] [µM] | IC50 [2, 10] [µM] | IC50 [5, 11] [µM] | IC50 ([3]; Homo sapiens, A549, 50% inhibition of cell proliferation) [µM] | Structure (SMILES)
1 | 0.86 | 0.38 | 0.95 | 0.25 | > 10 |  |  |  |  |  | COc1cc(OC)c2c(c1Cl)O[C@]1(C2=O)C2=C(C[C@](C)(c3ccccc3)O2)C(=O)C[C@H]1C [compound 5, (2R,2′S,6R)-7′-chloro-4′,6′-dimethoxy-2,6-dimethyl-2-phenyl-5,6-dihydro-2H,3′H-2,7′-spirobi[benzofuran]-3′,4(3H)-dione]
2 | 0.46 | 0.74 | 0.44 |  | > 10 | 0.86 |  |  |  |  | COc1cc(OC)c2c(c1Cl)O[C@]1(C2=O)C2=C(C[C@](CCCCO)(c3ccccc3)O2)C(=O)C[C@H]1C [compound 14, (2 S,2′S,6R)-7′-chloro-2-(4-hydroxybutyl)-4′,6′-dimethoxy-6-methyl-2-phenyl-5,6-dihydro-2H,3′H-2,7′-spirobi[benzofuran]-3′,4(3H)-dione]
3 | 0.18 | 0.21 | 0.072 |  | > 10 | 0.45 |  |  |  |  | COc1cc(OC)c2c(c1Cl)O[C@]1(C2=O)C2=C(C[C@H](c3ccc(F)cc3)O2)C(=O)C[C@H]1C [compound 34, (2R,2′S,6R)-7′-chloro-2-(4-fluorophenyl)-4′,6′-dimethoxy-6-methyl-5,6-dihydro-2H,3′H-2,7′-spirobi[benzofuran]-3′,4(3H)-dione]
4 | 0.25 | 0.17 |  |  | > 10 | 0.38 |  |  |  |  | COc1cc(OC)c2c(c1Cl)O[C@]1(C2=O)C2=C(C[C@@H](c3ccc(F)cc3)O2)C(=O)C[C@H]1C [compound 35, (2S,2′S,6R)-7′-chloro-2-(4-fluorophenyl)-4′,6′-dimethoxy-6-methyl-5,6-dihydro-2H,3′H-2,7′-spirobi[benzofuran]-3′,4(3H)-dione]
5 | 0.27 | 0.47 |  |  | > 10 | 1.4 |  |  |  |  | COc1cc(OC)c2c(c1Cl)O[C@]1(C2=O)C2=C(C[C@H](c3ccccc3F)O2)C(=O)C[C@H]1C [compound 37, (2R,2′S,6R)-7′-chloro-2-(2-fluorophenyl)-4′,6′-dimethoxy-6-methyl-5,6-dihydro-2H,3′H-2,7′-spirobi[benzofuran]-3′,4(3H)-dione]
6 |  | 0.57 | 0.86 | 0.22 | > 10 | 0.79 |  |  |  |  | COc1cc(OC)c2c(c1Cl)O[C@]1(C2=O)C2=C(C[C@@](CCO)(c3ccccc3)O2)C(=O)C[C@H]1C [compound 46, (2R,2′S,6R)-7′-chloro-2-(2-hydroxyethyl)-4′,6′-dimethoxy-6-methyl-2-phenyl-5,6-dihydro-2H,3′H-2,7′-spirobi[benzofuran]-3′,4(3H)-dione]
7 |  | 0.021 |  |  |  | 0.14 |  |  |  |  | COc1cc(OC)c2c(c1Cl)O[C@@]1(C=C([S+]([O-])Cc3ccccc3)C(=O)C[C@H]1C)C2=O (stereo partly drawn) [compound 97, (1′S,6′R)-3′-(benzylsulfinyl)-7-chloro-4,6-dimethoxy-6′-methyl-3H-spiro[benzofuran-2,1′-cyclohex[2]ene]-3,4′-dione]
8 |  | 0.41 |  |  |  | 0.76 |  |  |  |  | COc1cc(OC)c2c(c1Cl)O[C@@]1(C=C(S(=O)(=O)c3ccccc3)C(=O)C[C@H]1C)C2=O [compound 98, (1′S,6′R)-7-chloro-4,6-dimethoxy-6′-methyl-3′-(phenylsulfonyl)-3H-spiro[benzofuran-2,1′-cyclohex[2]ene]-3,4′-dione]
9 |  |  |  |  |  | 1.3 | 0.64 | 0.73 | > 10 |  | COc1cc(OC)c2c(c1Cl)O[C@]1(C2=O)C(=O)c2c(nn(C)c2-c2ccccc2Cl)C[C@H]1C [compound 115, (2S,6′R)-7-chloro-3′-(2-chlorophenyl)-4,6-dimethoxy-2′,6′-dimethyl-6′,7′-dihydro-3H-spiro[benzofuran-2,5′-indazole]-3,4′(2′H)-dione]
10 |  | 0.73 |  |  |  | 2.3 |  |  |  |  | COc1cc(OC)c2c(c1Cl)O[C@]1(C2=O)C(=O)c2c(nn(C)c2-c2ccccc2Cl)C[C@H]1C [compound 126, (2S,3′R,6′R)-7-chloro-3′-(2-chlorophenyl)-4,6-dimethoxy-2′,6′-dimethyl-6′,7′-dihydro-3H-spiro[benzofuran-2,5′-indazole]-3,4′(2′H)-dione]
11 |  | 0.14 |  |  |  | 0.25 |  |  |  |  | COc1cc(OC)c2c(c1Cl)O[C@]1(C2=O)C(=O)c2c(nn(C)c2-c2ccccc2Br)C[C@H]1C [compound 130, (2S,3′S,6′R)-7-chloro-3′-(2-bromophenyl)-4,6-dimethoxy-2′,6′-dimethyl-6′,7′-dihydro-3H-spiro[benzofuran-2,5′-indazole]-3,4′(2′H)-dione]
12 |  | 0.51 |  |  |  | 1.3 |  |  |  |  | COc1cc(OC)c2c(c1Cl)O[C@]1(C2=O)C(=O)c2c(nn(C)c2-c2ccccc2C(F)(F)F)C[C@H]1C [compound 135, (2S,3′S,6′R)-7-chloro-4,6-dimethoxy-2′,6′-dimethyl-3′-(2-(trifluoromethyl)phenyl)-6′,7′-dihydro-3H-spiro[benzofuran-2,5′-indazole]-3,4′(2′H)-dione]
13 |  |  |  |  |  | > 10 | 1.4 | 0.43 | > 10 | 0.45 | COC(=O)c1cc(-c2ccc(F)cc2)c2c(n1)C[C@@H](C)[C@]1(Oc3c(Cl)c(OC)cc(OC)c3C1=O)C2=O [compound 164, (2S,7′R)-methyl 7-chloro-4′-(4-fluorophenyl)-4,6-dimethoxy-7′-methyl-3,5′-dioxo-7′,8′-dihydro-3H,5′H-spiro[benzofuran-2,6′-quinoline]-2′-carboxylate]
14 |  |  |  |  |  | 0.5 | 0.17 | 0.23 | > 10 |  | COC(=O)C1=C[C@H](c2ccsc2)C2=C(C[C@@H](C)[C@]3(Oc4c(Cl)c(OC)cc(OC)c4C3=O)C2=O)N1 [compound 165, (2S,4′S,7′R)-methyl 7-chloro-4,6-dimethoxy-7′-methyl-3,5′-dioxo-4′-(thiophen-3-yl)-4′,5′,7′,8′-tetrahydro-1′H,3H-spiro[benzofuran-2,6′-quinoline]-2′-carboxylate]
15 |  | 0.62 | 9.2 |  |  | > 10 |  |  |  |  | COc1cc(OC)c2c(c1Cl)O[C@]1(C2=O)C(N(C)CCN(C)c2ccccn2)=CC(=O)C[C@H]1C [compound 205, (1′S,6′R)-7-chloro-4,6-dimethoxy-6′-methyl-2′-(methyl(2-(methyl(pyridin-2-yl)amino)ethyl)amino)-3H-spiro[benzofuran-2,1′-cyclohex[2]ene]-3,4′-dione]
16 |  |  |  |  |  | 0.77 | 0.22 | 0.38 | > 10 |  | COC(=O)c1cc(-c2ccsc2)c2c(n1)C[C@@H](C)[C@]1(Oc3c(Cl)c(OC)cc(OC)c3C1=O)C2O (stereo partly drawn) [compound 255, (2S,7′R)-methyl 7-chloro-5′-hydroxy-4,6-dimethoxy-7′-methyl-3-oxo-4′-(thiophen-3-yl)-7′,8′-dihydro-3H,5′H-spiro[benzofuran-2,6′-quinoline]-2′-carboxylate]
17 |  |  |  |  |  | 0.84 | 0.33 | 0.51 | > 10 |  | COC(=O)c1cc(-c2ccc(F)cc2)c2c(n1)C[C@@H](C)[C@]1(Oc3c(Cl)c(OC)cc(OC)c3C1=O)C2O (stereo partly drawn) [compound 256, (2S,7′R)-methyl 7-chloro-4′-(4-fluorophenyl)-5′-hydroxy-4,6-dimethoxy-7′-methyl-3-oxo-7′,8′-dihydro-3H,5′H-spiro[benzofuran-2,6′-quinoline]-2′-carboxylate]
18 |  |  |  |  |  | 2.4 | 0.43 | 0.51 | > 10 |  | COc1cc(OC)c2c(c1Cl)O[C@]1(C2=O)C(O)c2c(-c3ccccc3)cc(C(=O)OC(C)C)nc2C[C@H]1C (stereo partly drawn) [compound 257, (2S,7′R)-isopropyl 7-chloro-5′-hydroxy-4,6-dimethoxy-7′-methyl-3-oxo-4′-phenyl-7′,8′-dihydro-3H,5′H-spiro[benzofuran-2,6′-quinoline]-2′-carboxylate]
